Literature values in patent publication US8642081B2, “Chewable, suckable and swallowable tablet containing a calcium-containing compound as an active substance” (Takeda Nycomed AS, priority 2004, dated 2014).

Tested on: treated patients
Settings: annual injections of 150.000-300.000 IU

For vitamin D, the overall fracture rate is given as “significant reduction” and the “rate of hip fracture” value is given as “not”.
